Columns and labels:
[1] = tested on: Acinetobacter baumannii ATCC 19606; experiment: MIC, spiral gradient endpoint assay, A. baumannii; format: cell-based; conditions: ATCC19606; Acinetobacter baumannii ATCC 19606
[2] = tested on: Francisella tularensis SCHU4; experiment: microbe, parasite or virus in culture; format: cell-based; conditions: Francisella tularensis, SCHU4, read-out: MIC F. tularensis SCHU4
Brucella melitensis 16M = experiment: microbe, parasite or virus in culture; format: cell-based; conditions: Brucella melitensis, 16M, read-out: MIC B. melitensis 16M
[3] = tested on: Burkholderia pseudomallei Human/Blood/OH/US/1994; experiment: microbe, parasite or virus in culture; format: cell-based; conditions: Burkholderia pseudomallei, read-out: MIC B. pseudomallei Human/Blood/OH
[4] = tested on: Bacillus anthracis Vollum 1b; experiment: microbe, parasite or virus in culture; format: cell-based; conditions: Bacillus anthracis, VOLLUM1B, read-out: MIC B. anthracis Vollum-1b
[5] = tested on: Mycobacterium tuberculosis H37Rv; experiment: MIC, microplate Alamar Blue assay, M. tuberculosis; format: cell-based
[6] = target: E. coli RNA polymerase σ^70 holoenzyme (Escherichia coli, UniProt P0A8T7+P0A8V2); experiment: Fluorescence-detected RNA polymerase assay, E. coli RNA polymerase; format: biochemical; conditions: read-out: IC50 E. coli RNAP
[7] = tested on: Staphylococcus aureus ATCC 12600; experiment: MIC, spiral gradient endpoint assay, S. aureus ATCC 12600; format: cell-based; conditions: ATCC12600; Staphylococcus aureus ATCC 12600
[8] = tested on: Escherichia coli D21f2tolC; experiment: MIC, spiral gradient endpoint assay, E. coli D21f2tolC; format: cell-based; conditions: Escherichia coli, D21F2TOLC, read-out: MIC E. coli D21f2toIC
Burkholderia mallei CHN7 = experiment: microbe, parasite or virus in culture; format: cell-based; conditions: Burkholderia mallei, CHN7, read-out: MIC B. mallei CHN7
Yersinia pestis C092 = experiment: microbe, parasite or virus in culture; format: cell-based; conditions: Yersinia pestis, C092, read-out: MIC Y. pestis C092

E. coli RNA polymerase σ^70 holoenzyme, sequence (P0A8T7 whole entry): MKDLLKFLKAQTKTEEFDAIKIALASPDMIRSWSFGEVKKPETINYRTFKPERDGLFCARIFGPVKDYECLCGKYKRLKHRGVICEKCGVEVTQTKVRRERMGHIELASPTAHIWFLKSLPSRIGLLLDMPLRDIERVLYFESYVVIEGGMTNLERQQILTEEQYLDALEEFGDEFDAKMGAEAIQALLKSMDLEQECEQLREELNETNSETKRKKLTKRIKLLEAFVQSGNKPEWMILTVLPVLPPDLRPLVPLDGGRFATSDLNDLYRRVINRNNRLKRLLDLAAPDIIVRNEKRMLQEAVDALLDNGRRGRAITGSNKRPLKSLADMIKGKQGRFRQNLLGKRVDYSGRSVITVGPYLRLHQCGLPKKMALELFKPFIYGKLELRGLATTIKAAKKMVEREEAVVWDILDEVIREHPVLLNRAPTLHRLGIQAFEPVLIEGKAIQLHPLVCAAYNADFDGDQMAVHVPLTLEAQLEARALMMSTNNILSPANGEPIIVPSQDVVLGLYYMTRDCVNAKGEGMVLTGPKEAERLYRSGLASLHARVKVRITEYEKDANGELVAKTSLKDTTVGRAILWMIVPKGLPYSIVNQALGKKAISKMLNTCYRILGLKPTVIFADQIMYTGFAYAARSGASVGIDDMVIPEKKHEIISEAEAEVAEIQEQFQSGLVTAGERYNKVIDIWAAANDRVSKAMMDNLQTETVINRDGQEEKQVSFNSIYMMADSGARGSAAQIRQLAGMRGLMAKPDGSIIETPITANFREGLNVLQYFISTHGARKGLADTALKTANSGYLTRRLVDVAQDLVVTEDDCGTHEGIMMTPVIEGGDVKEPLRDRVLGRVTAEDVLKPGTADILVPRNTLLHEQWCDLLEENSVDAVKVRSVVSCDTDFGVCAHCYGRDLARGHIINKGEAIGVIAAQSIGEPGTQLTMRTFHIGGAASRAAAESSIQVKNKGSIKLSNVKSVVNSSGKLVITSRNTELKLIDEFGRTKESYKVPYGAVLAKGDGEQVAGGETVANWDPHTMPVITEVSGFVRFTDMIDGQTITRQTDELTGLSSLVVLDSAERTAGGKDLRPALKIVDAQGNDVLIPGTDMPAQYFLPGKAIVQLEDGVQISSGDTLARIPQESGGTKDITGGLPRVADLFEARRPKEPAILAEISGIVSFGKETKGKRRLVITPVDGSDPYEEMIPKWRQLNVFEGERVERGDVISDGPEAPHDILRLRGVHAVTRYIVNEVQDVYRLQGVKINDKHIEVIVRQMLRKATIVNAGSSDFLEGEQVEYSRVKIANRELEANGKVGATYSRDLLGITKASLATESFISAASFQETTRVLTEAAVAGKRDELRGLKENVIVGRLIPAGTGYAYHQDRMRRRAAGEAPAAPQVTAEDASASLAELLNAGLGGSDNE
E. coli RNA polymerase σ^70 holoenzyme, sequence (P0A800 whole entry, further chain): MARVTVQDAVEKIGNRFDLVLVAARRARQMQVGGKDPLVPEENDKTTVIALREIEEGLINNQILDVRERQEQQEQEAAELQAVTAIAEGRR
E. coli RNA polymerase σ^70 holoenzyme, sequence (P0A8V2 whole entry): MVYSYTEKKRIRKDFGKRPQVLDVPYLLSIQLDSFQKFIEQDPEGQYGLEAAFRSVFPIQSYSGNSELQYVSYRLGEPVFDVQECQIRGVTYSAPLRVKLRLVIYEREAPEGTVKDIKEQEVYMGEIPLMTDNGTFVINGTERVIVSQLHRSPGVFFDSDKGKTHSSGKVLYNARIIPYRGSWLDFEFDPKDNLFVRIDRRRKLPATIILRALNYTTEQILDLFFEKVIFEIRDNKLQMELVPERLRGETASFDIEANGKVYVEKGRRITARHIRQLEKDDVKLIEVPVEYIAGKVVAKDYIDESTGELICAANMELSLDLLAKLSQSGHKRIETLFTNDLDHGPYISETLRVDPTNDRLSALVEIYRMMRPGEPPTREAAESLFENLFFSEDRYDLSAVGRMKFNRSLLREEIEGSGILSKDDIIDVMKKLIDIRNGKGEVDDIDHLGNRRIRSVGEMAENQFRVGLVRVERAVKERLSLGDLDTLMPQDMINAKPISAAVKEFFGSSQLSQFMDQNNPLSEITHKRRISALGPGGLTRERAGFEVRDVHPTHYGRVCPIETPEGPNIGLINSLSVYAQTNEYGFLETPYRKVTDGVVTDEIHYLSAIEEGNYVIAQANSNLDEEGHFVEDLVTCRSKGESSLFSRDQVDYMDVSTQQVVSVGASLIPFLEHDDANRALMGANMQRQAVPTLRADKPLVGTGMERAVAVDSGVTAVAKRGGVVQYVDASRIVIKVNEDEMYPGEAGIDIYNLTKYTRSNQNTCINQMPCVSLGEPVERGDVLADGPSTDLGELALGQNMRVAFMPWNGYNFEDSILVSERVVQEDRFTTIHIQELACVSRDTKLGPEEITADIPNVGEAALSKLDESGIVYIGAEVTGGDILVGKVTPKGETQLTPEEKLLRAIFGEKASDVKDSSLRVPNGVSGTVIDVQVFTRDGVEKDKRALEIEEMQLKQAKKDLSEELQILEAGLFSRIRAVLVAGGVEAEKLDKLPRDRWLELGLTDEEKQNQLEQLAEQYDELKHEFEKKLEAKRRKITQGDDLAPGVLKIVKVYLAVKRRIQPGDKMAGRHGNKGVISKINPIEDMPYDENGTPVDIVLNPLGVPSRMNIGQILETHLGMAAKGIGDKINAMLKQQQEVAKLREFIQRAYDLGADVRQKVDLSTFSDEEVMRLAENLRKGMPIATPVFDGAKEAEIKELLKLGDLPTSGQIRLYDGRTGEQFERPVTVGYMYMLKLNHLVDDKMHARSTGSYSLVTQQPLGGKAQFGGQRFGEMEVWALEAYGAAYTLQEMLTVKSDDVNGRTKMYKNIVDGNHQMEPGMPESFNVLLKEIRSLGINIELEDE
E. coli RNA polymerase σ^70 holoenzyme, sequence (P00579 whole entry, further chain): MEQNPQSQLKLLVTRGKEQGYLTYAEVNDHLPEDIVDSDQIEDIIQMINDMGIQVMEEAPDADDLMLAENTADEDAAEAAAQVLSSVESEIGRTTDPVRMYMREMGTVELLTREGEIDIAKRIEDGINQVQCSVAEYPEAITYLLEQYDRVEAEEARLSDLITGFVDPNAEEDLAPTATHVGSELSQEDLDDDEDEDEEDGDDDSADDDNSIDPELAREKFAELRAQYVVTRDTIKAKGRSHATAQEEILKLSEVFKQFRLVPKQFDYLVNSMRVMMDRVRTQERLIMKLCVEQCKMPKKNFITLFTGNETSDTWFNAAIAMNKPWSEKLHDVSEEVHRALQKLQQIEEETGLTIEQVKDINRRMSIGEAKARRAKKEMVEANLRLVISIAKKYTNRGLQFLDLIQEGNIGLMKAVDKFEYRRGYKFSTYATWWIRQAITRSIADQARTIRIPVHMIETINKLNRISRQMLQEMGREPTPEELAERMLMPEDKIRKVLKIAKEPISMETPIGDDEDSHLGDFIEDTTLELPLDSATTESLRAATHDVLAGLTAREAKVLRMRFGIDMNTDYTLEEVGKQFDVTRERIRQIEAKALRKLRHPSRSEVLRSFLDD
E. coli RNA polymerase σ^70 holoenzyme, sequence (P0A7Z4 whole entry, further chain): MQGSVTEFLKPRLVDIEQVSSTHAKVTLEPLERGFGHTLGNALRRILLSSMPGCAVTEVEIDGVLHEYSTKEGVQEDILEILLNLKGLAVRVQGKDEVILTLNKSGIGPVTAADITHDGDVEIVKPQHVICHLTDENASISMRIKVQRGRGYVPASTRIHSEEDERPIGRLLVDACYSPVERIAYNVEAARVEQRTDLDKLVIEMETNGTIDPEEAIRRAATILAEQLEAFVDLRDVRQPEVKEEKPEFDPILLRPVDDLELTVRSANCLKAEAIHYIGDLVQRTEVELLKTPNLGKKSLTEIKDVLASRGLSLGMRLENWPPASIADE

SMILES | MIC [1] [µg/mL] | MIC [2] [µg/mL] | MIC (Brucella melitensis 16M) [µg/mL] | MIC [3] [µg/mL] | MIC [4] [µg/mL] | MIC [5] [µg/mL] | IC50 [6] [nM] | MIC [7] [µg/mL] | MIC [8] [µg/mL] | MIC (Burkholderia mallei CHN7) [µg/mL] | MIC (Yersinia pestis C092) [µg/mL]
CCCCc1ccc(C=CC(=O)c2c(O)cc(C(C)CC/C=C/NC(=O)OC)oc2=O)s1 (mixture of isomers) [APY36, methyl (E)-5-(3-((E/Z)-3-(5-butylthiophen-2-yl)acryloyl)-4-hydroxy-2-oxo-2H-pyran-6-yl)hex-1-enylcarbamate] | > 40 | 6 | > 50 | > 50 | 6 | 30 | 300 | > 40 | 0.7 | > 50 | > 50
CCCCCCc1ccc(C=C(C)C(=O)c2c(O)cc(C(C)CC/C=C/NC(=O)OC)oc2=O)cn1 (mixture of isomers) [APY37, methyl (E)-5-(3-((E/Z)-3-(6-hexylpyridin-3-yl)-2-methylacryloyl)-4-hydroxy-2-oxo-2H-pyran-6-yl)hex-1-enylcarbamate] | > 40 | 50 | 10 | > 50 | 50 | > 50 | 90 | > 40 | 0.6 | 50 | > 50
CCCCOc1ccc(C=C(C)C(=O)c2c(O)cc(C(C)CC/C=C/NC(=O)OC)oc2=O)cc1 (mixture of isomers) [APY39, methyl (E)-5-(3-((E/Z)-3-(4-butoxyphenyl)-2-methylacryloyl)-4-hydroxy-2-oxo-2H-pyran-6-yl)hex-1-enylcarbamate] | > 40 | 30 | 0.4 | 50 | 3 | 3 | 80 | 1 | 0.2 | 10 | 30
CCCOc1ccc(C=C(C)C(=O)c2c(O)cc(C(C)CC/C=C/NC(=O)OC)oc2=O)cc1 (mixture of isomers) [APY40, methyl (E)-5-(4-hydroxy-3-((E/Z)-2-methyl-3-(4-propoxyphenyl)acryloyl)-2-oxo-2H-pyran-6-yl)hex-1-enylcarbamate] | 9 | > 50 | 3 | > 50 | 10 | 6 | 10 | 1 | 0.4 | > 50 | > 50
CCCCOc1cccc(C=C(C)C(=O)c2c(O)cc(C(C)CC/C=C/NC(=O)OC)oc2=O)c1 (mixture of isomers) [APY42, methyl (E)-5-(3-((E/Z)-3-(3-butoxyphenyl)-2-methylacryloyl)-4-hydroxy-2-oxo-2H-pyran-6-yl)hex-1-enylcarbamate] | > 40 | 50 | 6 | 50 | 10 | 30 | 30 | > 40 | 0.4 | 50 | > 50
CCCOc1cccc(C=C(C)C(=O)c2c(O)cc(C(C)CC/C=C/NC(=O)OC)oc2=O)c1 (mixture of isomers) [APY43, methyl (E)-5-(4-hydroxy-3-((E/Z)-2-methyl-3-(3-propoxyphenyl)acryloyl)-2-oxo-2H-pyran-6-yl)hex-1-enylcarbamate] | > 40 | 30 | 3 | 50 | 10 | 6 | 200 | > 40 | 0.4 | 50 | > 50
COC(=O)N/C=C/CCC(C)c1cc(O)c(C(=O)C(C)=Cc2ccc(OCCC(C)(C)C)cc2)c(=O)o1 (mixture of isomers) [APY48, methyl (E)-5-(3-((E/Z)-3-(4-(3,3-dimethylbutoxy)phenyl)-2-methylacryloyl)-4-hydroxy-2-oxo-2H-pyran-6-yl)hex-1-enylcarbamate] |  | 10 | 6 | > 50 | 6 | 10 | 900 | 10 |  | 50 | > 50
COC(=O)N/C=C/CCC(C)c1cc(O)c(C(=O)C(C)=Cc2cccc(OCCC(C)(C)C)c2)c(=O)o1 (mixture of isomers) [APY49, methyl (E)-5-(3-((E/Z)-3-(3-(3,3-dimethylbutoxy)phenyl)-2-methylacryloyl)-4-hydroxy-2-oxo-2H-pyran-6-yl)hex-1-enylcarbamate] | > 40 | 30 | 10 | > 50 | 10 | 50 | 10 | > 40 | 0.3 | 50 | > 50
CCCCCc1ccc(C=C(C)C(=O)c2c(O)cc(C(C)CC/C=C/NC(=O)OC)oc2=O)s1 (mixture of isomers) [APY59, methyl (E)-5-(4-hydroxy-5-((E/Z)-2-methyl-3-(5-pentylthiophen-2-yl)acryloyl)-6-oxo-6H-pyran-2-yl)hex-1-enylcarbamate] | 7 | 10 | 6 | 10 | 2 | 30 | 10 | 0.3 | 0.2 | 6 | 
CCc1ccc(C=C(C)C(=O)c2c(O)cc(C(C)CC/C=C/NC(=O)OC)oc2=O)s1 (mixture of isomers) [APY64, methyl (E)-5-(5-((E/Z)-3-(5-ethylthiophen-2-yl)-2-methylacryloyl)-4-hydroxy-6-oxo-6H-pyran-2-yl)hex-1-enylcarbamate] | > 40 | 50 | 10 | > 50 | 50 | 30 | 200 | 9 | 0.8 | > 50 | 
CCCCc1ccc(C=C(C)C(=O)c2c(O)cc(C(C)CCCCNC(=O)OC)oc2=O)s1 (mixture of isomers) [APY67, methyl 5-(5-((E/Z)-3-(5-butylthiophen-2-yl)-2-methylacryloyl)-4-hydroxy-6-oxo-6H-pyran-2-yl)hexylcarbamate] | > 40 | 50 | 10 | > 50 | 30 | 50 | 1000 | 5 | 0.5 | > 50 | 
CCc1ccc(C=C(C)C(=O)c2c(O)cc(C(C)CC/C=C/NC(=O)OC)oc2=O)cc1 (mixture of isomers) [APY70, methyl (E)-5-(5-((E/Z)-3-(4-ethylphenyl)-2-methylacryloyl)-4-hydroxy-6-oxo-6H-pyran-2-yl)hex-1-enylcarbamate] | > 40 | > 50 | 30 | > 50 | 50 | 30 | > 6000 | 20 | 1 | > 50 | 
COC(=O)N/C=C/CCC(C)c1cc(O)c(C(=O)C(C)=Cc2ccc(CCC(F)(F)F)cc2)c(=O)o1 (mixture of isomers) [APY74, methyl (E)-5-(5-((E/Z)-3-(4-(3,3,3-trifluoropropyl)phenyl)-2-methylacryloyl)-4-hydroxy-6-oxo-6H-pyran-2-yl)hex-1-enylcarbamate] | > 40 | 50 | 10 | > 50 | 10 | 10 | 40 | 2 | 0.2 | > 50 | 
COC(=O)N/C=C/CCC(C)c1cc(O)c(C(=O)C(C)=Cc2ccc(CCCCCC(F)(F)F)s2)c(=O)o1 (mixture of isomers) [APY82, methyl ((1E)-5-(4-hydroxy-3-(2-methyl-3-(5-(6,6,6-trifluorohexyl)thiophen-2-yl)acryloyl)-2-oxo-2H-pyran-6-yl)hex-1-en-1-yl)carbamate] | 20 | 10 | 2 | 6 | 3 | > 50 | 5 | 10 | 0.07 | 6 | 
COC(=O)N/C=C/CCC(C)c1cc(O)c(C(=O)C(C)=Cc2ccc(OCC(F)(F)F)cc2)c(=O)o1 (mixture of isomers) [APY117, methyl ((1E)-5-(4-hydroxy-3-(2-methyl-3-(4-(2,2,2-trifluoroethoxy)phenyl)acryloyl)-2-oxo-2H-pyran-6-yl)hex-1-en-1-yl)carbamate] | > 40 | > 50 | 10 | > 50 | 10 | 10 | 100 | 2 | 0.4 | 50 | 50
